Test results taken from patent publication US9113629B2, “4-amino-6-(4-substituted-phenyl)-picolinates and 6-amino-2-(4-substituted-phenyl)-pyrimidine-4-carboxylates and their use as herbicides” (DOW AGROSCIENCES LLC, priority 2013, dated 2015).
Where two headings read alike, the source gives them in different places.

What was measured:
[1] = tested on: Key Broadleaf Weed and Crop Species; test: Post-emergent Test II herbicidal activity (Table 5); format: in vivo; conditions: post-emergence, 336 h, 14 days after application; for pest or weed control at 70 g/ha: application rate 70 g ai/ha; for pest or weed control at 140 g/ha: application rate 140 g ai/ha
Method in brief: (§1)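 Injury was rated visually 14 d after treatment on a 0–100% scale against untreated controls. Test compounds, formulated with crop oil concentrate and surfactant and serially diluted down to 1/16× of the top rate, were applied by track sprayer at 187 L/ha onto first- to second-true-leaf seedlings.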

[2] = tested on: Key Grass and Sedge Weeds as well as Grass Crops; test: Post-emergent Test II herbicidal activity (Table 6); format: in vivo; conditions: post-emergence, 336 h; for pest or weed control at 70 g/ha: 70 g ai/ha; for pest or weed control at 140 g/ha: 140 g ai/ha
Method in brief: as §1

[3] = ABUTH: velvetleaf (Abutilon theophrasti), read-out: Visual Growth Reduction (%) 14 Days After Application, ABUTH
[4] = AMARE: redroot pigweed (Amaranthus retroflexus), read-out: Visual Growth Reduction (%) 14 Days After Application, AMARE
[5] = BRSNN: oilseed-rape, canola (Brassica napus), read-out: Visual Growth Reduction (%) 14 Days After Application, BRSNN
[6] = CHEAL: lambsquarters (Chenopodium album), read-out: Visual Growth Reduction (%) 14 Days After Application, CHEAL
[7] = EPHHL: wild poinsettia (Euphorbia heterophylla), read-out: Visual Growth Reduction (%) 14 Days After Application, EPHHL
[8] = HELAN: sunflower (Helianthus annuus), read-out: Visual Growth Reduction (%) 14 Days After Application, HELAN
[9] = VIOTR: wild pansy (Viola tricolor), read-out: Visual Growth Reduction (%) 14 Days After Application, VIOTR
[10] = CYPES: yellow nutsedge (Cyperus esculentus), read-out: Visual Growth Reduction (%) 14 Days After Application, CYPES
[11] = DIGSA: crabgrass (Digitaria sanguinalis), read-out: Visual Growth Reduction (%) 14 Days After Application, DIGSA
[12] = ECHCG: barnyardgrass (Echinochloa crus-galli), read-out: Visual Growth Reduction (%) 14 Days After Application, ECHCG
[13] = ORYSA: rice (Oryza sativa), crop, read-out: Visual Growth Reduction (%) 14 Days After Application, ORYSA
[14] = SETFA: giant foxtail (Setaria faberi), read-out: Visual Growth Reduction (%) 14 Days After Application, SETFA
[15] = SORVU: grain sorghum (Sorghum vulgare), read-out: Visual Growth Reduction (%) 14 Days After Application, SORVU
[16] = TRZSS (wheat, Triticum aestivum), crop, read-out: Visual Growth Reduction (%) 14 Days After Application, TRZSS
[17] = ZEAMX: maize, corn (Zea mays), crop, read-out: Visual Growth Reduction (%) 14 Days After Application, ZEAMX

Compound	pest or weed control at 70 g/ha [1, 3] [%]	pest or weed control at 140 g/ha [1, 3] [%]	pest or weed control at 70 g/ha [1, 4] [%]	pest or weed control at 140 g/ha [1, 4] [%]	pest or weed control at 70 g/ha [1, 5] [%]	pest or weed control at 140 g/ha [1, 5] [%]	pest or weed control at 70 g/ha [1, 6] [%]	pest or weed control at 140 g/ha [1, 6] [%]	pest or weed control at 70 g/ha [1, 7] [%]	pest or weed control at 140 g/ha [1, 7] [%]	pest or weed control at 70 g/ha [1, 8] [%]	pest or weed control at 140 g/ha [1, 8] [%]	pest or weed control at 70 g/ha [1, 9] [%]	pest or weed control at 140 g/ha [1, 9] [%]	melting point [°C]	pest or weed control at 70 g/ha [2, 10] [%]	pest or weed control at 140 g/ha [2, 10] [%]	pest or weed control at 70 g/ha [2, 11] [%]	pest or weed control at 140 g/ha [2, 11] [%]	pest or weed control at 70 g/ha [2, 12] [%]	also measured
COC(=O)c1nc(-c2ccc(C#N)c(F)c2F)c(F)c(N)c1Cl [Compound 160]	30 to 44	45 to 59	85 to 94	95 to 100	0 to 29	0 to 29	60 to 74	75 to 84	45 to 59	60 to 74	85 to 94	95 to 100	0 to 29	0 to 29	163 to 164	0 to 29	0 to 29	0 to 29	0 to 29	0 to 29	pest or weed control at 140 g/ha [2, 12]: 0 to 29%; pest or weed control at 70 g/ha [2, 13]: 0 to 29%; pest or weed control at 140 g/ha [2, 13]: 0 to 29%; pest or weed control at 70 g/ha [2, 14]: 0 to 29%; pest or weed control at 140 g/ha [2, 14]: 0 to 29%; pest or weed control at 70 g/ha [2, 15]: 0 to 29%; pest or weed control at 140 g/ha [2, 15]: 0 to 29%; pest or weed control at 70 g/ha [2, 16]: 0 to 29%; pest or weed control at 140 g/ha [2, 16]: 0 to 29%; pest or weed control at 70 g/ha [2, 17]: 0 to 29%; pest or weed control at 140 g/ha [2, 17]: 0 to 29%
Nc1c(F)c(-c2ccc(Br)cc2F)nc(C(=O)O)c1Cl [Compound 163]	85 to 94	85 to 94	95 to 100	95 to 100	95 to 100	95 to 100	95 to 100	95 to 100	95 to 100	95 to 100	95 to 100	95 to 100	95 to 100	95 to 100	162 to 164	95 to 100	95 to 100	75 to 84	85 to 94	85 to 94	pest or weed control at 140 g/ha [2, 12]: 85 to 94%; pest or weed control at 70 g/ha [2, 13]: 0 to 29%; pest or weed control at 140 g/ha [2, 13]: 0 to 29%; pest or weed control at 70 g/ha [2, 14]: 85 to 94%; pest or weed control at 140 g/ha [2, 14]: 95 to 100%; pest or weed control at 70 g/ha [2, 15]: 85 to 94%; pest or weed control at 140 g/ha [2, 15]: 85 to 94%; pest or weed control at 70 g/ha [2, 16]: 60 to 74%; pest or weed control at 140 g/ha [2, 16]: 60 to 74%; pest or weed control at 70 g/ha [2, 17]: 45 to 59%; pest or weed control at 140 g/ha [2, 17]: 60 to 74%
COC(=O)c1nc(-c2ccc(C(F)(F)F)c(F)c2)c(F)c(N)c1Cl [Compound 165]	85 to 94	95 to 100	85 to 94	85 to 94	75 to 84	85 to 94	95 to 100	95 to 100	95 to 100	95 to 100	95 to 100	95 to 100	45 to 59	95 to 100	133 to 135	95 to 100	95 to 100	60 to 74	60 to 74	85 to 94	pest or weed control at 140 g/ha [2, 12]: 95 to 100%; pest or weed control at 70 g/ha [2, 13]: 0 to 29%; pest or weed control at 140 g/ha [2, 13]: 0 to 29%; pest or weed control at 70 g/ha [2, 14]: 60 to 74%; pest or weed control at 140 g/ha [2, 14]: 85 to 94%; pest or weed control at 70 g/ha [2, 15]: 60 to 74%; pest or weed control at 140 g/ha [2, 15]: 60 to 74%; pest or weed control at 70 g/ha [2, 16]: 45 to 59%; pest or weed control at 140 g/ha [2, 16]: 45 to 59%; pest or weed control at 70 g/ha [2, 17]: 75 to 84%; pest or weed control at 140 g/ha [2, 17]: 95 to 100%
